The record followed here is patent publication US8927533B2, “Thio derivatives bearing lactams as potent HDAC inhibitors and their uses as medicaments” (SIGMA-TAU Industrie Farmaceutiche Riunite S.p.A., priority 2011, dated 2015).

SMILES strings stand for the structures. Some results are limits rather than exact numbers.

In general, IC50 refers to the midpoint of a concentration-inhibition curve. Broadly, the EC50 is the midpoint of the concentration-response curve.

For data set [1], the target named is T1, HDAC6 (Homo sapiens, UniProt Q9UBN7).
T1 sequence (Q9UBN7 1-1215): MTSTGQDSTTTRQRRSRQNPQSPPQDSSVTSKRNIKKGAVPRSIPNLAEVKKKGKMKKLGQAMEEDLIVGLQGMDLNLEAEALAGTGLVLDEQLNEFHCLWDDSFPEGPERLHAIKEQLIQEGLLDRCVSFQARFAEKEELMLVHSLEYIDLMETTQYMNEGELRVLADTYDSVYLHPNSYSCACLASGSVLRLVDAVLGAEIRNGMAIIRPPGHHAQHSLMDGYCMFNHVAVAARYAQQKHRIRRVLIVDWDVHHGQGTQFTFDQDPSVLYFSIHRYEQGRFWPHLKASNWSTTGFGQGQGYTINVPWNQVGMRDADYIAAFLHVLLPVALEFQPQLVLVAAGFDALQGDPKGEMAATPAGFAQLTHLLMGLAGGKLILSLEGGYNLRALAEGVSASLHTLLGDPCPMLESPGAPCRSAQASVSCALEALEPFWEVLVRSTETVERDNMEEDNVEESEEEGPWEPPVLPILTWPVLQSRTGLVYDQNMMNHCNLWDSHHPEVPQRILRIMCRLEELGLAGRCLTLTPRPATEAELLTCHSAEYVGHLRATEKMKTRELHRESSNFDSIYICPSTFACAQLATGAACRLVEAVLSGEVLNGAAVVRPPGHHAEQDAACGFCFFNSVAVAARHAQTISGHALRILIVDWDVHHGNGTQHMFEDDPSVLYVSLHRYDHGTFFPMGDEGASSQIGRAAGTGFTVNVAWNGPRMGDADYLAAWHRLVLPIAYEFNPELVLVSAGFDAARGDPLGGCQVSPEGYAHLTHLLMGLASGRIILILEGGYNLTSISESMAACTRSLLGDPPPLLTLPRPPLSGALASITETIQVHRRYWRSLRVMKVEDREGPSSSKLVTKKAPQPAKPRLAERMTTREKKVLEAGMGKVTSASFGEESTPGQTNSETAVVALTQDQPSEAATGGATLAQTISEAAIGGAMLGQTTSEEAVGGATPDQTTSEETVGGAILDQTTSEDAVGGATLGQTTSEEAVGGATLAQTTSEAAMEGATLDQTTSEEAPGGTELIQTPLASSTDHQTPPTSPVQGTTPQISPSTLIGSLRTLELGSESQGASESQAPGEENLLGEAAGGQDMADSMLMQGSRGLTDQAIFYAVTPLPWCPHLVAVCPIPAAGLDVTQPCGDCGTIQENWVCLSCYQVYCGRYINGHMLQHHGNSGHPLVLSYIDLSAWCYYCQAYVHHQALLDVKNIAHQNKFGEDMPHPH
The experiment in a line: HDAC enzymatic assay, HDAC6. It is filed as biochemical. As to the method: (§1) Each compound was dissolved in DMSO, and progressively diluted solutions were used for testing. […] Upon its deacetylation, the fluorophore was released given rise to fluorescence emission which was detected by a fluorimeter, and the IC50 values of the compounds were determined by analyzing dose-response inhibition curves.

Data set [2] deals with eleven HDAC isolated human isoforms. The experiment in a line: HDAC profiling, whole isoform panel. The format is biochemical. As to the method: as §1
Data set [3] deals with MV4-11 acute monocytic leukemia cells. The experiment in a line: Cytotoxicity extended panel, MV4-11. The format is cell-based. To be noted: Homo sapiens, suspension cells, 72 h. The protocol:
(§2) Cells were seeded in 96-well tissue culture plates at approximately 10% confluence. They were allowed to attach and recover for at least 24 h. Compounds of the present invention were then added to each well at various concentrations in order to define cell survival inhibition IC50. The plates were incubated for 72 h at 37° C., after which time they were washed 3 times by removal of the supernatant. 200 μl of PBS and 50 μl of cold 80% TCA were added and the plates were incubated on ice for at least 1 h. TCA was removed and the plates were washed 3 times by immersion in distilled water. They were then dried on paper at 40° C. for 5 min. 200 μl of 0.4% sulphorodamine B in 1% acetic acid were added. The plates were incubated at room temperature for further 30 min. Sulphorodamine B was removed, and the plates were washed 3 times by immersion in 1% acetic acid and were dried on paper at 40° C. for 5 min. Then 200 μl Tris 10 mM were added. The plates were kept under magnetic stirring for 20 min. Cell survival was determined by means of optical density by a Multiskan spectrofluorimeter at 540 nm. The amount of cells killed was calculated as the percentage decrease in sulphorodamine B binding compared to control cultures. The IC50 values (reported in Table 5) were calculated with the “ALLFIT” program. […]

Data set [4] concerns histone H4 acetylation in NCI-H460 cells. As to the kind of experiment: Histone H4 acetylation, Western Blot.
Protocol: (§4) The experiments were conducted using ECL Plus Western blotting detection reagents (from Amersham Biosciences) and the intensity of the bands were analyzed by using a computed phosphoimage analyzer (PhosphoImager; Molecular Dynamics, Sunnyvale, Calif., U.S.A.).
The subject of data set [5] is MCF-7 breast tumour cells. The experiment in a line: Cytotoxicity extended panel, MCF-7. The format is cell-based. The note with it: Homo sapiens, MCF7, cell survival, 72 h, sulphorodamine B. As to the method:
(§3) Cells were seeded in 96-well tissue culture plates at approximately 10% confluence. They were allowed to attach and recover for at least 24 h. Compounds of the present invention were then added to each well at various concentrations in order to define cell survival inhibition IC50. The plates were incubated for 72 h at 37° C., after which time they were washed 3 times by removal of the supernatant. 200 μl of PBS and 50 μl of cold 80% TCA were added and the plates were incubated on ice for at least 1 h. TCA was removed and the plates were washed 3 times by immersion in distilled water. They were then dried on paper at 40° C. for 5 min. 200 μl of 0.4% sulphorodamine B in 1% acetic acid were added. The plates were incubated at room temperature for further 30 min. Sulphorodamine B was removed, and the plates were washed 3 times by immersion in 1% acetic acid and were dried on paper at 40° C. for 5 min. Then 200 μl Tris 10 mM were added. The plates were kept under magnetic stirring for 20 min. Cell survival was determined by means of optical density by a Multiskan spectrofluorimeter at 540 nm. The amount of cells killed was calculated as the percentage decrease in sulphorodamine B binding compared to control cultures. The IC50 values (reported in Table 5) were calculated with the “ALLFIT” program.

Data set [6] relates to α-tubulin acetylation in NCI-H460 cells. As to the kind of experiment: Tubulin acetylation, Western Blot. To be noted: cytoplasmic extracts. On the technique in general: Immunoblotting shows a protein as a band on a membrane.
Protocol: as §4
In data set [7] the test system is K562 chronic myeloid leukemia cells. The experiment in a line: Cytotoxicity extended panel, K562. The format is cell-based. To be noted: Homo sapiens, suspension cells, 72 h. As to the method: as §2
The test system of data set [8] is U937 leukemia cells. The experiment in a line: Cytotoxicity extended panel, U937. The format is cell-based. The note with it: Homo sapiens, U-937, suspension cells, 72 h. As to the method: as §2
In data set [9] the test system is SKOV-3 ovarian tumour cells. The experiment in a line: Cytotoxicity extended panel, SKOV-3. The format is cell-based. The note with it: Homo sapiens, SK-OV-3, cell survival, 72 h, sulphorodamine B. As to the method: as §3
The test system of data set [10] is HCT116 colon cancer cells. The experiment in a line: Cytotoxicity, sulphorodamine B, HCT116. To be noted: Homo sapiens, HCT-116, read-out: HCT116 cell line IC50 (μM).
Protocol: (§5) The plates were incubated for 24 h at 37° C., after which they were washed 3 times by removal of the supernatant and addition of PBS. The plates were then incubated for further 48 h at 37° C. 200 μl PBS and 50 μl of cold 80% TCA were added and the plates were incubated on ice for at least 1 h. TCA was removed and the plates were washed 3 times by immersion in distilled-water. They were then dried on paper at 40° C. for 5 min. 200 μl of 0.4% sulphorodamine B in 1% acetic acid were added. The plates were incubated at room temperature for further 30 min. Sulphorodamine B was removed, and the plates were washed 3 times by immersion in 1% acetic acid and were dried on paper and at 40° C. for 5 min. Then 200 μl Tris 10 mM were added. The plates were kept under magnetic stirring for 20 min. Cell survival was determined by means of optical density by a Multiskan spectrofluorimeter at 540 nm. The amount of cells killed was calculated as the percentage decrease in sulphorodamine B binding compared to control cultures.
Data set [11] has as its system H929 multiple myeloma cells. As to the kind of experiment: Antitumour activity, H929 xenograft (Example 48). It is filed as in vivo, CD1 nude mice. To be noted: 50 mg/10 ml/kg i.p., qd×5/w×3w.
Protocol: (§6) The tested derivatives were administered as a suspension in PBS/DMSO/Cremophor EL (Sigma): 85/10/5 (volume percentage). The antitumour activity was determined by measuring tumour diameters with a Vernier calliper according to the Formula TV=d^2×D/2
(§7) where d and D are the shortest and longest diameters, respectively.
(§8) When tumours reached a volume of about 1000 mm^3, mice were sacrificed by cervical dislocation. The efficacy of the drug was assessed as the tumour volume inhibition according to the Formula reported underneath:
(§9) Body weight recording was carried out to evaluate body weight loss as calculated in the equation underneath:
(§10) Wherein BW day x corresponds to the mean weight at day x of the experiment meanwhile BW day 1 corresponds to the mean weight at the first day of the experiment.
Data set [12] has as its system HUT78 T-Lymphoma cells. As to the kind of experiment: Cytotoxicity extended panel, HUT78. The format is cell-based. The note with it: Homo sapiens, suspension cells, 72 h. The protocol:
as §2

Data set [13] concerns HSC3 head and neck tumour cells. The experiment in a line: Cytotoxicity extended panel, HSC3. To be noted: Homo sapiens, HSC-3, cell survival, 72 h, sulphorodamine B. The format is cell-based. The protocol: as §3
In data set [14] the test system is HCT116 colon cancer cells. The experiment in a line: Antitumour activity, HCT116 xenograft (Example 48). The format is in vivo, CD1 nude mice. The note with it: 50 mg/10 ml/kg i.p., qd×5/w×3w.
Protocol: as §6, §7, §8, §9, §10
Data set [15] deals with A2780 ovarian tumour cells. The experiment in a line: Cytotoxicity extended panel, A2780. It is filed as cell-based. The note with it: Homo sapiens, cell survival, 72 h, sulphorodamine B. As to the method:
as §3

Data set [16] has as its system MDA-MB231 breast tumour cells. As to the kind of experiment: Cytotoxicity extended panel, MDA-MB231. The format is cell-based. The note with it: Homo sapiens, MDA-MB-231, cell survival, 72 h, sulphorodamine B. As to the method:
as §3

For data set [17], the system named is NCI-H460 NSCLC. As to the kind of experiment: Antitumour activity, NCI-H460 xenograft (Example 48). To be noted: 50 mg/10 ml/kg i.p., qd×5/w×3w.
Protocol: as §6, §7, §8, §9, §10
Data set [18] relates to MDA-MB436 breast tumour cells. The experiment in a line: Cytotoxicity extended panel, MDA-MB436. The format is cell-based. To be noted: Homo sapiens, MDA-MB-436, cell survival, 72 h, sulphorodamine B. The protocol:
as §3

The subject of data set [19] is NCI-H460 non-small cell lung carcinoma cells. As to the kind of experiment: Cytotoxicity, sulphorodamine B, H460. The note with it: Homo sapiens, NCI-H460, read-out: H460 cell line IC50 (μM).
Protocol: as §5

`CC(C)(C)OC(=O)N[C@@H](CCCCCS)C(=O)NC1CCCC1` [((S)-1-cyclopentylcarbamoyl-6-mercapto-hexyl)-carbamic acid tert-butyl ester, reference compound]: the “activity on HDAC6 compared with the described compounds” value in data set [1] was “much lower activity on HDAC6 than most of the herein described compounds”. The “HDAC isoform selectivity profile” value in data set [2] was “confirmed its HDAC6 selectivity profile”.
Regarding `CC(=O)SCCCCC[C@H](NC(=O)[C@@H]1CCCC(=O)N1)C(=O)Nc1ccccc1` [Example 14, Thioacetic acid S—{(S)-6-[((S)-6-oxo-piperidine-2-carbonyl)-amino]-6-phenylcarbamoyl-hexyl}ester], the IC50 in data set [3] is 0.19 µM; in data set [5], 0.19 µM; in data set [7] it was 0.19 µM; in data set [8], 0.049 µM; in [9], 0.38 µM; in data set [10] it was below 0.5 µM. For the same molecule, the 50% inhibitory concentration (IC50) in data set [12] was 0.48 µM; in [13] it was 0.77 µM; in data set [15] it was 0.062 µM; in [16], 0.23 µM; in data set [18], 0.18 µM; in data set [19] it was below 0.5 µM. Moreover, the EC50 in [4] (Homo sapiens, NCI-H460, read-out: EC50 μM H4 acetylation) turned out to be 0.1 µM. In data set [4] (NCI-H460 cells, Western Blot, 'as low as'), the “concentration inducing H4 hyper-acetylation” value was 100 nM. In addition, the “hyper-acetylation of cytoplasmatic α-tubulin” value in data set [6] was “comparable to that observed with the reference compound SAHA”. In addition, the results for the BWL % in [11], in data set [14] and in data set [17] were 11%, 3% and 2%, respectively. Also, the TVI % came to 30% in data set [11], 44% in data set [14] and 36% in data set [17].
